According to ChEMBL document CHEMBL3994622, “Design and synthesis of new RAF kinase-inhibiting antiproliferative quinoline derivatives. Part 2: Diarylurea derivatives” (Eur J Med Chem, 2017):

What was measured:
MDA-MB-468 = assay: Growth inhibition of human MDA-MB-468 cells assessed as cell growth at 0.01 uM incubated for 48 hrs by sulforhodamine B assay relative to control; type: functional; conditions: MDA-MB-468, 48 h, read-out: Activity
SF-268 [1] = assay: Growth inhibition of human SF268 cells assessed as cell growth at 5 uM incubated for 48 hrs by sulforhodamine B assay relative to control; type: functional; conditions: SF-268, 48 h, read-out: Activity
OVCAR-5 = assay: Growth inhibition of human OVCAR5 cells assessed as cell growth at 0.05 uM incubated for 48 hrs by sulforhodamine B assay relative to control; type: functional; conditions: OVCAR-5, 48 h, read-out: Activity
UO-31 [2] = assay: Growth inhibition of human UO31 cells assessed as cell growth at 5 uM incubated for 48 hrs by sulforhodamine B assay relative to control; type: functional; conditions: UO-31, 48 h, read-out: Activity
U-251 = assay: Growth inhibition of human U251 cells assessed as cell growth at 0.005 uM incubated for 48 hrs by sulforhodamine B assay relative to control; type: functional; conditions: U-251, 48 h, read-out: Activity
NCI-H460 = assay: Growth inhibition of human NCI-H460 cells assessed as cell growth at 0.5 uM incubated for 48 hrs by sulforhodamine B assay relative to control; type: functional; conditions: NCI-H460, 48 h, read-out: Activity
HT-29 = assay: Growth inhibition of human HT-29 cells assessed as cell growth at 0.5 uM incubated for 48 hrs by sulforhodamine B assay relative to control; type: functional; conditions: HT-29, 48 h, read-out: Activity
HOP-62 = assay: Growth inhibition of human HOP62 cells assessed as cell growth at 0.05 uM incubated for 48 hrs by sulforhodamine B assay relative to control; type: functional; conditions: HOP-62, 48 h, read-out: Activity
786-0 = assay: Growth inhibition of human 786-0 cells assessed as cell growth at 0.5 uM incubated for 48 hrs by sulforhodamine B assay relative to control; type: functional; conditions: 786-0, 48 h, read-out: Activity
LOX IMVI [3] = assay: Growth inhibition of human LOXIMVI cells assessed as cell growth at 0.05 uM incubated for 48 hrs by sulforhodamine B assay relative to control; type: functional; conditions: read-out: Activity
SNB-75 = assay: Growth inhibition of human SNB75 cells assessed as cell growth at 0.5 uM incubated for 48 hrs by sulforhodamine B assay relative to control; type: functional; conditions: SNB-75, 48 h, read-out: Activity
ACHN = assay: Growth inhibition of human ACHN cells assessed as cell growth at 5 uM incubated for 48 hrs by sulforhodamine B assay relative to control; type: functional; conditions: read-out: Activity
SF-539 = assay: Growth inhibition of human SF539 cells assessed as cell growth at 0.05 uM incubated for 48 hrs by sulforhodamine B assay relative to control; type: functional; conditions: SF-539, 48 h, read-out: Activity
NCI-H226 [4] = assay: Growth inhibition of human NCI-H226 cells assessed as cell growth at 0.005 uM incubated for 48 hrs by sulforhodamine B assay relative to control; type: functional; conditions: NCI-H226, 48 h, read-out: Activity
HOP-92 = assay: Growth inhibition of human HOP92 cells assessed as cell growth at 0.005 uM incubated for 48 hrs by sulforhodamine B assay relative to control; type: functional; conditions: HOP-92, 48 h, read-out: Activity
MOLT-4 = assay: Growth inhibition of human MOLT4 cells assessed as cell growth at 50 uM incubated for 48 hrs by sulforhodamine B assay relative to control; type: functional; conditions: MOLT-4, 48 h, read-out: Activity
HCT-116 = assay: Growth inhibition of human HCT116 cells assessed as cell growth at 0.05 uM incubated for 48 hrs by sulforhodamine B assay relative to control; type: functional; conditions: HCT-116, 48 h, read-out: Activity
Malme-3M = assay: Growth inhibition of human MALME-3M cells assessed as cell growth at 50 uM incubated for 48 hrs by sulforhodamine B assay relative to control; type: functional; conditions: read-out: Activity
OVCAR-8 = assay: Growth inhibition of human OVCAR8 cells assessed as cell growth at 5 uM incubated for 48 hrs by sulforhodamine B assay relative to control; type: functional; conditions: OVCAR-8, 48 h, read-out: Activity
SF-268 [5] = assay: Growth inhibition of human SF268 cells assessed as cell growth at 0.5 uM incubated for 48 hrs by sulforhodamine B assay relative to control; type: functional; conditions: SF-268, 48 h, read-out: Activity
OVCAR-4 = assay: Growth inhibition of human OVCAR4 cells assessed as cell growth at 50 uM incubated for 48 hrs by sulforhodamine B assay relative to control; type: functional; conditions: OVCAR-4, 48 h, read-out: Activity
PC-3 = assay: Growth inhibition of human PC3 cells assessed as cell growth at 50 uM incubated for 48 hrs by sulforhodamine B assay relative to control; type: functional; conditions: PC-3, 48 h, read-out: Activity
COLO 205 = assay: Growth inhibition of human COLO205 cells assessed as cell growth at 0.005 uM incubated for 48 hrs by sulforhodamine B assay relative to control; type: functional; conditions: COLO 205, 48 h, read-out: Activity
NCI-H226 [6] = assay: Growth inhibition of human NCI-H226 cells assessed as cell growth at 5 uM incubated for 48 hrs by sulforhodamine B assay relative to control; type: functional; conditions: NCI-H226, 48 h, read-out: Activity
NCI-H226 [7] = assay: Growth inhibition of human NCI-H226 cells assessed as cell growth at 0.5 uM incubated for 48 hrs by sulforhodamine B assay relative to control; type: functional; conditions: NCI-H226, 48 h, read-out: Activity
UO-31 [8] = assay: Growth inhibition of human UO31 cells assessed as cell growth at 0.5 uM incubated for 48 hrs by sulforhodamine B assay relative to control; type: functional; conditions: UO-31, 48 h, read-out: Activity
SN12C = assay: Growth inhibition of human SN12C cells assessed as cell growth at 0.05 uM incubated for 48 hrs by sulforhodamine B assay relative to control; type: functional; conditions: read-out: Activity
RXF 393 = assay: Growth inhibition of human RXF393 cells assessed as cell growth at 0.005 uM incubated for 48 hrs by sulforhodamine B assay relative to control; type: functional; conditions: RXF 393, 48 h, read-out: Activity
BT-549 = assay: Growth inhibition of human BT549 cells assessed as cell growth at 0.5 uM incubated for 48 hrs by sulforhodamine B assay relative to control; type: functional; conditions: BT-549, 48 h, read-out: Activity
OVCAR-3 = assay: Growth inhibition of human OVCAR3 cells assessed as cell growth at 50 uM incubated for 48 hrs by sulforhodamine B assay relative to control; type: functional; conditions: OVCAR-3, 48 h, read-out: Activity
EKVX = assay: Growth inhibition of human EKVX cells assessed as cell growth at 0.003 uM incubated for 48 hrs by sulforhodamine B assay relative to control; type: functional; conditions: read-out: Activity
LOX IMVI [9] = assay: Growth inhibition of human LOXIMVI cells assessed as cell growth at 3 uM incubated for 48 hrs by sulforhodamine B assay relative to control; type: functional; conditions: read-out: Activity
[10] = molecular target: Receptor tyrosine-protein kinase erbB-2 (Homo sapiens) (UniProt P04626); assay: Inhibition of human HER2 at 10 uM using poly[Glu:Tyr] (4:1) as substrate in presence of [33P]ATP by Hotspot assay relative to control
LOX IMVI [11] = assay: Growth inhibition of human LOXIMVI cells assessed as cell growth at 0.3 uM incubated for 48 hrs by sulforhodamine B assay relative to control; type: functional; conditions: read-out: Activity

Chain of Receptor tyrosine-protein kinase erbB-2 (Homo sapiens) (P04626 whole entry): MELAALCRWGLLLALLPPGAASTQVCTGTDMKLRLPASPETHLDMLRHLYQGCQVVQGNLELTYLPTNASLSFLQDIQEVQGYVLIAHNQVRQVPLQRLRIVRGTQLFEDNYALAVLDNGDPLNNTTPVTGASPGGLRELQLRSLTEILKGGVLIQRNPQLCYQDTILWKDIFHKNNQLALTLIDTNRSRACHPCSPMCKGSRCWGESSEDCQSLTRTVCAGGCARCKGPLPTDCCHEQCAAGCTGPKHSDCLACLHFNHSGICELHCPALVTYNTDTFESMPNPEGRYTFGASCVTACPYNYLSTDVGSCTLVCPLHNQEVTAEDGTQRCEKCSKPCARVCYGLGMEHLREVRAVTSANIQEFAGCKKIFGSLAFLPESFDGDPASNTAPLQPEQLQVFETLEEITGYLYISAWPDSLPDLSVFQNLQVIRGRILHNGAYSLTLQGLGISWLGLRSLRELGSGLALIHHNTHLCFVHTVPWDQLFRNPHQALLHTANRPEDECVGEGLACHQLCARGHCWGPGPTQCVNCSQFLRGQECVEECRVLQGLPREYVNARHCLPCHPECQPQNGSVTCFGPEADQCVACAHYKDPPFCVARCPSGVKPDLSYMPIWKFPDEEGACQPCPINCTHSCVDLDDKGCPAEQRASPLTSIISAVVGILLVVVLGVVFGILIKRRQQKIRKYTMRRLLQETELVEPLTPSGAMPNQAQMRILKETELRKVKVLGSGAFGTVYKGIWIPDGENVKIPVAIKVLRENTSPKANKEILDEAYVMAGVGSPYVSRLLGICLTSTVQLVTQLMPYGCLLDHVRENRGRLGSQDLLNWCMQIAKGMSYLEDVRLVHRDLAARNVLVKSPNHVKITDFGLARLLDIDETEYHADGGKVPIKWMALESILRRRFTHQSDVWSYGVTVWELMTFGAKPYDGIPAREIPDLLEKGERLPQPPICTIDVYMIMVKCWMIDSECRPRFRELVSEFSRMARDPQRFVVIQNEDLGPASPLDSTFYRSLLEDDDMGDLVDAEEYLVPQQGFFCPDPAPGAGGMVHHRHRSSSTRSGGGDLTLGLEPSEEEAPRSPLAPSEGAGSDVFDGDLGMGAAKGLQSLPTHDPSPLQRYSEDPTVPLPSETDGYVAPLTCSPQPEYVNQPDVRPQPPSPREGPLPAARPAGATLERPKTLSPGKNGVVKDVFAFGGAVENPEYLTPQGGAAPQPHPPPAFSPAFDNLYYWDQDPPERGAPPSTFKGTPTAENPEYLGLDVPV

`COc1cc2cc(Oc3ccc(NC(=O)Nc4cc(C(F)(F)F)cc(C(F)(F)F)c4)cc3)c(C)nc2cc1OC` showed a growth at 0.01 µM (MDA-MB-468) of 101%.
For `COc1cc2cc(Oc3ccc(NC(=O)Nc4cccc(C(F)(F)F)c4)cc3)c(C)nc2cc1OC`, the growth at 5 µM (SF-268 [1]) was 31%, the growth at 0.05 µM (OVCAR-5) was 103% and the growth at 5 µM (UO-31 [2]) was 12%. It also gave a growth at 0.005 µM (U-251) of 98%, a growth at 0.5 µM (NCI-H460) of 96% and a growth at 0.5 µM (HT-29) of 112%. It also gave a growth at 0.05 µM (HOP-62) of 95%, a growth at 0.5 µM (786-0) of 95% and a growth at 0.05 µM (LOX IMVI [3]) of 96%. It also gave a growth at 0.5 µM (SNB-75) of 77%, a growth at 5 µM (ACHN) of 8% and a growth at 0.05 µM (SF-539) of 96%. The growth at 0.005 µM (NCI-H226 [4]) was 96%, the growth at 0.005 µM (HOP-92) was 96% and the growth at 50 µM (MOLT-4) was -22%. The growth at 0.05 µM (HCT-116) was 93%, the growth at 50 µM (Malme-3M) was -60% and the growth at 5 µM (OVCAR-8) was 10%. It also gave a growth at 0.5 µM (SF-268 [5]) of 96%, a growth at 50 µM (OVCAR-4) of -63% and a growth at 50 µM (PC-3) of -65%. It also gave a growth at 0.005 µM (COLO 205) of 97%, a growth at 5 µM (NCI-H226 [6]) of 3% and a growth at 0.5 µM (NCI-H226 [7]) of 108%. For the same compound, the growth at 0.5 µM (UO-31 [8]) was 106%, the growth at 0.05 µM (SN12C) was 97% and the growth at 0.005 µM (RXF 393) was 94%. It also gave a growth at 0.5 µM (BT-549) of 86% and a growth at 50 µM (OVCAR-3) of -57%.
Compound `COc1cc2cc(Oc3ccc(NC(=O)Nc4ccc(Cl)c(C(F)(F)F)c4)cc3)c(C)nc2cc1OC` has a growth at 0.003 µM (EKVX) of 103%, a growth at 3 µM (LOX IMVI [9]) of 12% and an inhibition [10] of -7.21%. For the same compound, the growth at 0.3 µM (LOX IMVI [11]) was 101%.
